One assay deals with T1, PRKCH (Homo sapiens, UniProt P24723).
T1 construct: purchased Eurofins DiscoverX KINOMEscan
The assay is described as follows: DiscoverX KINOMEscan binding assay at 1 μM, PRKCH. Conditions: Compound Concentration 1000 nM, read-out: Percent Control. An excerpt:
(§1) Supplement cells-12-00287-s001.zip/File S2. KinomeScan data for the CAMKK2 probe and negative control.xlsx, sheet "SGC-CAMKK2-1" | column: Percent Control

In a further assay the target is T2, MAPKAPK5 (Homo sapiens, UniProt Q8IW41).
T2 construct: purchased Eurofins DiscoverX KINOMEscan
Kind of assay: KINOMEscan 1 μM, MAPKAPK5. Conditions: 1000 nM; Entrez MAPKAPK5; read-out: Percent Control. Type of assay: binding.
Description: as §1

The target of a further assay is T3, CDKL2 (Homo sapiens, UniProt Q92772).
T3 construct: purchased Eurofins DiscoverX KINOMEscan
Kind of assay: KINOMEscan 1 μM, CDKL2. Type of assay: binding. Conditions: 1000 nM; Entrez CDKL2; read-out: Percent Control.
Description: as §1

Assay [1] addresses T4, RSK3(Kin.Dom.1-N-terminal) (Homo sapiens, UniProt Q15349).
T4 construct: RSK3(Kin.Dom.1-N-terminal); purchased Eurofins DiscoverX KINOMEscan
Kind of assay: KINOMEscan 1 μM, RSK3(Kin.Dom.1-N-terminal). Type of assay: binding. Conditions: 1000 nM; Entrez RPS6KA2; read-out: Percent Control.
Description: as §1

In the next assay the target is T5, WNK1 (Homo sapiens, UniProt Q9H4A3).
T5 construct: purchased Eurofins DiscoverX KINOMEscan
T5 sequence (Q9H4A3 whole entry): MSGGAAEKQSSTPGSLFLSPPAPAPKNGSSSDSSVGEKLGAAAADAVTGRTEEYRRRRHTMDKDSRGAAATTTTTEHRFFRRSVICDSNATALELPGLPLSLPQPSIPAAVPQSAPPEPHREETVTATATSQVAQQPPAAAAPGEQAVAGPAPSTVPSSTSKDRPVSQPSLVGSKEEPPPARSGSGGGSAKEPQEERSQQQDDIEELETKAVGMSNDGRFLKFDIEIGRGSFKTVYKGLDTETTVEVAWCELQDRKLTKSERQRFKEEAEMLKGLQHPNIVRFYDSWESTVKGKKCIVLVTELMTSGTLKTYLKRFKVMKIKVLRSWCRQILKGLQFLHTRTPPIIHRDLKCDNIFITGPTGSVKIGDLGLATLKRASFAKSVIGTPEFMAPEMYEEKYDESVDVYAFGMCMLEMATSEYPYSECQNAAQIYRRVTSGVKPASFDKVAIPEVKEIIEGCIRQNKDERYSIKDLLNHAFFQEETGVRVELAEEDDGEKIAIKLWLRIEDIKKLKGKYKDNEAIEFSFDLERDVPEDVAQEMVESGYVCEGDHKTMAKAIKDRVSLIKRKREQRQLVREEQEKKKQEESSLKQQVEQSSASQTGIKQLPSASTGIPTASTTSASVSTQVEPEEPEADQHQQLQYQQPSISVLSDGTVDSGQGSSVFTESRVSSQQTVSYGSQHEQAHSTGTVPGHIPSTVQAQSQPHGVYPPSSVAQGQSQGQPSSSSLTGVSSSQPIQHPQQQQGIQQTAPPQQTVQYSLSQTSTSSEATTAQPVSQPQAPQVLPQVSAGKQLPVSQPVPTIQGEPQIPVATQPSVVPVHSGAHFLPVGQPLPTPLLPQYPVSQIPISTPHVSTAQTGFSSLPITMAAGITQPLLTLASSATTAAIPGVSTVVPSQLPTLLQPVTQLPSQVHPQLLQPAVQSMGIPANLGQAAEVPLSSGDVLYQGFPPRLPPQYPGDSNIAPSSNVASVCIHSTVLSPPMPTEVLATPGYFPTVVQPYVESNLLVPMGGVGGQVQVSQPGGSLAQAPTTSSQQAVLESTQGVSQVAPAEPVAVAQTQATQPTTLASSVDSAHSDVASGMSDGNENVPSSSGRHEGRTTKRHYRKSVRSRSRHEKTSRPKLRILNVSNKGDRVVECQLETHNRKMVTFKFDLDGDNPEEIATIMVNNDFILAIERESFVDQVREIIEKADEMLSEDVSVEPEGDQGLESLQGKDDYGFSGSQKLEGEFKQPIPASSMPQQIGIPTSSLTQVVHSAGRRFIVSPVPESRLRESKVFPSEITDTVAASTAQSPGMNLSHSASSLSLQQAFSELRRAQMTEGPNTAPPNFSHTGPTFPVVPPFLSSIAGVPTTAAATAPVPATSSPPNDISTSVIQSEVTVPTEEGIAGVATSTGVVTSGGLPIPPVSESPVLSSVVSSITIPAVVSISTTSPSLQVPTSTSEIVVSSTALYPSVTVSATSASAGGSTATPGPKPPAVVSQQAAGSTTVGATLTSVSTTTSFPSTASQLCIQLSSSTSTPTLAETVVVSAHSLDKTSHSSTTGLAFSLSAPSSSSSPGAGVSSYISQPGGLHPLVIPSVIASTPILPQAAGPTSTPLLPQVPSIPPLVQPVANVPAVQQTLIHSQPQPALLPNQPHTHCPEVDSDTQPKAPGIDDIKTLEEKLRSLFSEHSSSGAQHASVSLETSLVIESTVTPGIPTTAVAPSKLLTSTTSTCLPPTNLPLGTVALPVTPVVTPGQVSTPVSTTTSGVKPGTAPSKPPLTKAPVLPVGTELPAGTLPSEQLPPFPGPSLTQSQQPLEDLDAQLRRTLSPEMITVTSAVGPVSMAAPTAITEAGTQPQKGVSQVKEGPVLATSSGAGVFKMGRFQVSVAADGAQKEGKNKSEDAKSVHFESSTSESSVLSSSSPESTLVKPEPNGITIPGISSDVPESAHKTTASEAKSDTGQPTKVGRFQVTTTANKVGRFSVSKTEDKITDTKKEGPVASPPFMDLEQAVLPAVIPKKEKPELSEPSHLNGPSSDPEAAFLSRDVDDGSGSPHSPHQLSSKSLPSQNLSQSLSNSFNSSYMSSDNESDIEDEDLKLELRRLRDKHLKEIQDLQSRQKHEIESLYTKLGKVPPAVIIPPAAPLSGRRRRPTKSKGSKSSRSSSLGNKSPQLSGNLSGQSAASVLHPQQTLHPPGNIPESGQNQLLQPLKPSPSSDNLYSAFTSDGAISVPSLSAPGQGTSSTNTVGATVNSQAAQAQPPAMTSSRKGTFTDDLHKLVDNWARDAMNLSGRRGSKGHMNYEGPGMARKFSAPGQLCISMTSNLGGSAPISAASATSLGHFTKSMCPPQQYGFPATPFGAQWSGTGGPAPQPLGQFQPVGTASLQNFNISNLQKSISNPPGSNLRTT
Kind of assay: DiscoverX KINOMEscan binding assay at 1 μM, WNK1. Conditions: Compound Concentration 1000 nM, read-out: Percent Control.
Description: as §1

For a further assay, the target named is T6, ITK (Homo sapiens, UniProt Q08881).
T6 construct: purchased Eurofins DiscoverX KINOMEscan
The assay is described as follows: KINOMEscan 1 μM, ITK. Type of assay: binding. Conditions: 1000 nM; Entrez ITK; read-out: Percent Control.
Description: as §1

In another assay the target is T7, SRMS (Homo sapiens, UniProt Q9H3Y6).
T7 construct: purchased Eurofins DiscoverX KINOMEscan
Kind of assay: DiscoverX KINOMEscan binding assay at 1 μM, SRMS. Conditions: Compound Concentration 1000 nM, read-out: Percent Control.
Description: as §1

For the next assay, the target named is T8, PRP4 (Homo sapiens, UniProt Q13523).
T8 construct: purchased Eurofins DiscoverX KINOMEscan
The assay is described as follows: DiscoverX KINOMEscan binding assay at 1 μM, PRP4. Conditions: PRP4 (PRPF4B); Compound Concentration 1000 nM; read-out: Percent Control.
Description: as §1

The target in the next assay is T9, SRC (Homo sapiens, UniProt P12931).
T9 construct: purchased Eurofins DiscoverX KINOMEscan
The assay is described as follows: KINOMEscan 1 μM, SRC. The format is binding. Conditions: 1000 nM; Entrez SRC; read-out: Percent Control.
Description: as §1

Another assay has as its target T10, BLK (Homo sapiens, UniProt P51451).
T10 construct: purchased Eurofins DiscoverX KINOMEscan
Kind of assay: KINOMEscan 1 μM, BLK. The format is binding. Conditions: 1000 nM; Entrez BLK; read-out: Percent Control.
Description: as §1

The next assay deals with T11, PIK3CA(E545A) (Homo sapiens, UniProt P42336, E545A).
T11 construct: purchased Eurofins DiscoverX KINOMEscan
Kind of assay: DiscoverX KINOMEscan binding assay at 1 μM, PIK3CA(E545A). Conditions: Compound Concentration 1000 nM, read-out: Percent Control.
Description: as §1

In another assay the target is T12, ERK8 (Homo sapiens, UniProt Q8TD08).
T12 construct: purchased Eurofins DiscoverX KINOMEscan
The assay is described as follows: KINOMEscan 1 μM, ERK8. Conditions: 1000 nM; Entrez MAPK15; read-out: Percent Control. The format is binding.
Description: as §1

For a further assay, the target named is T13, RET(V804M) (Homo sapiens, UniProt P07949, V804M).
T13 construct: purchased Eurofins DiscoverX KINOMEscan
The assay is described as follows: DiscoverX KINOMEscan binding assay at 1 μM, RET(V804M). Conditions: Compound Concentration 1000 nM, read-out: Percent Control.
Description: as §1

The next assay addresses T14, MST4 (Homo sapiens, UniProt Q9P289).
T14 construct: purchased Eurofins DiscoverX KINOMEscan
Kind of assay: KINOMEscan 1 μM, MST4. Conditions: 1000 nM; Entrez MST4; read-out: Percent Control. Type of assay: binding.
Description: as §1

For another assay, the target named is T15, BRAF (Homo sapiens, UniProt P15056).
T15 construct: purchased Eurofins DiscoverX KINOMEscan
The assay is described as follows: KINOMEscan 1 μM, BRAF. The format is binding. Conditions: 1000 nM; Entrez BRAF; read-out: Percent Control.
Description: as §1

The target of a further assay is T16, ASK2 (Homo sapiens, UniProt O95382).
T16 construct: purchased Eurofins DiscoverX KINOMEscan
The assay is described as follows: KINOMEscan 1 μM, ASK2. Conditions: 1000 nM; Entrez MAP3K6; read-out: Percent Control. The format is binding.
Description: as §1

The target in a further assay is T17, IKK-beta (Homo sapiens, UniProt O14920).
T17 construct: purchased Eurofins DiscoverX KINOMEscan
T17 sequence (O14920 whole entry): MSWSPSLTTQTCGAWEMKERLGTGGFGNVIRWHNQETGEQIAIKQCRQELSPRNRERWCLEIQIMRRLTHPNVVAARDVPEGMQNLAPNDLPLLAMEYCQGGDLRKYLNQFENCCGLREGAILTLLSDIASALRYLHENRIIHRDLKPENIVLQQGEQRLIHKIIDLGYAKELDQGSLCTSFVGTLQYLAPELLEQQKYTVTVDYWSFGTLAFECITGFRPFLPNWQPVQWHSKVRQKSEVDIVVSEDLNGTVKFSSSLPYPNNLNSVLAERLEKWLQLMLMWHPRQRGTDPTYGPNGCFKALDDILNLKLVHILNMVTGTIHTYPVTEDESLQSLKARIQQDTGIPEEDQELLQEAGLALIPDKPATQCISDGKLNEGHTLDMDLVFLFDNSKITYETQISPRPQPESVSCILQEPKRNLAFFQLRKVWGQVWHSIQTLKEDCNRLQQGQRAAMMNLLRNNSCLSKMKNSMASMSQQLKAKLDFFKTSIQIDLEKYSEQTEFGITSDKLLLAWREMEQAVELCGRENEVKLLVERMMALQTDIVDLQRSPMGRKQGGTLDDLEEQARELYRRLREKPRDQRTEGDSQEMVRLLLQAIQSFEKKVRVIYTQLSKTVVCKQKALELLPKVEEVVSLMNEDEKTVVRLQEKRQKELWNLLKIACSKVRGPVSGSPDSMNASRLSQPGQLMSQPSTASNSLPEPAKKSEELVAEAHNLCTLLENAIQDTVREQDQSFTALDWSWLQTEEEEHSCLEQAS
Kind of assay: KINOMEscan 1 μM, IKK-beta. Type of assay: binding. Conditions: 1000 nM; Entrez IKBKB; read-out: Percent Control.
Description: as §1

The target of a further assay is T18, CAMK2D (Homo sapiens, UniProt Q13557).
T18 construct: purchased Eurofins DiscoverX KINOMEscan
The assay is described as follows: KINOMEscan at 1 μM, CAMK2D. The format is binding. Conditions: 1000 nM, read-out: Percent Control. An excerpt:
(§2) Supplement cells-12-00287-s001.zip/File S2. KinomeScan data for the CAMKK2 probe and negative control.xlsx, sheet "SGC-CAMKK2-1N" | column: Percent Control

For another assay, the target named is T19, BMX (Homo sapiens, UniProt P51813).
T19 construct: purchased Eurofins DiscoverX KINOMEscan
Kind of assay: KINOMEscan at 1 μM, BMX. Conditions: 1000 nM, read-out: Percent Control. The format is binding.
Description: as §2

A further assay addresses T20, SRPK3 (Homo sapiens, UniProt Q9UPE1).
T20 construct: purchased Eurofins DiscoverX KINOMEscan
Kind of assay: KINOMEscan binding assay at 1 μM, SRPK3. Conditions: Compound Concentration 1000 nM; read-out: Percent Control.
Description: as §2

Another assay concerns the target T21, CHEK2 (Homo sapiens, UniProt O96017).
T21 construct: purchased Eurofins DiscoverX KINOMEscan
The assay is described as follows: KINOMEscan at 1 μM, CHEK2. Type of assay: binding. Conditions: 1000 nM, read-out: Percent Control.
Description: as §2

In a further assay the target is T22, MLCK (Homo sapiens, UniProt Q32MK0).
T22 construct: purchased Eurofins DiscoverX KINOMEscan
The assay is described as follows: KINOMEscan binding assay at 1 μM, MLCK. Conditions: Compound Concentration 1000 nM; read-out: Percent Control.
Description: as §2

A further assay has as its target T23, SGK3 (Homo sapiens, UniProt Q96BR1).
T23 construct: purchased Eurofins DiscoverX KINOMEscan
Kind of assay: KINOMEscan binding assay at 1 μM, SGK3. Conditions: Compound Concentration 1000 nM; read-out: Percent Control.
Description: as §2

A further assay has as its target T24, HPK1 (Homo sapiens, UniProt Q92918).
T24 construct: purchased Eurofins DiscoverX KINOMEscan
The assay is described as follows: KINOMEscan binding assay at 1 μM, HPK1. Conditions: Compound Concentration 1000 nM; read-out: Percent Control.
Description: as §2

In another assay the target is T25, TSSK3 (Homo sapiens, UniProt Q96PN8).
T25 construct: purchased Eurofins DiscoverX KINOMEscan
T25 sequence (Q96PN8 whole entry): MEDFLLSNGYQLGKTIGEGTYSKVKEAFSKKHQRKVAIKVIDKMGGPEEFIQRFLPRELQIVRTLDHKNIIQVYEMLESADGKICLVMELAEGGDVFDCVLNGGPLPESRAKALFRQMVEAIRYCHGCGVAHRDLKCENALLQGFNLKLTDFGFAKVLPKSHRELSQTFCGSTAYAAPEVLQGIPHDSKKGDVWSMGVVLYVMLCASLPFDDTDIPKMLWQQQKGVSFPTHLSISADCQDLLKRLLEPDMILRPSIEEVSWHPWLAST
The assay is described as follows: KINOMEscan at 1 μM, TSSK3. Conditions: 1000 nM, read-out: Percent Control. Type of assay: binding.
Description: as §2

The next assay concerns the target T26, AURKC (Homo sapiens, UniProt Q9UQB9).
T26 construct: purchased Eurofins DiscoverX KINOMEscan
Kind of assay: KINOMEscan at 1 μM, AURKC. The format is binding. Conditions: 1000 nM, read-out: Percent Control.
Description: as §2

A further assay addresses T27, CDC2L2 (Homo sapiens, UniProt Q9UQ88).
T27 construct: purchased Eurofins DiscoverX KINOMEscan
Kind of assay: KINOMEscan at 1 μM, CDC2L2. Conditions: 1000 nM, read-out: Percent Control. The format is binding.
Description: as §2

The next assay deals with T28, TTK (Homo sapiens, UniProt P33981).
T28 construct: purchased Eurofins DiscoverX KINOMEscan
Kind of assay: KINOMEscan at 1 μM, TTK. Type of assay: binding. Conditions: 1000 nM, read-out: Percent Control.
Description: as §2

Assay [2] has as its target T29, EGFR(L747-S752del, P753S) (Homo sapiens, UniProt P00533, DEL747-752/P753S).
T29 construct: purchased Eurofins DiscoverX KINOMEscan
Kind of assay: KINOMEscan binding assay at 1 μM, EGFR(L747-S752del, P753S). Conditions: Compound Concentration 1000 nM; read-out: Percent Control.
Description: as §2

In a further assay the target is T30, NEK1 (Homo sapiens, UniProt Q96PY6).
T30 construct: purchased Eurofins DiscoverX KINOMEscan
T30 sequence (Q96PY6 whole entry): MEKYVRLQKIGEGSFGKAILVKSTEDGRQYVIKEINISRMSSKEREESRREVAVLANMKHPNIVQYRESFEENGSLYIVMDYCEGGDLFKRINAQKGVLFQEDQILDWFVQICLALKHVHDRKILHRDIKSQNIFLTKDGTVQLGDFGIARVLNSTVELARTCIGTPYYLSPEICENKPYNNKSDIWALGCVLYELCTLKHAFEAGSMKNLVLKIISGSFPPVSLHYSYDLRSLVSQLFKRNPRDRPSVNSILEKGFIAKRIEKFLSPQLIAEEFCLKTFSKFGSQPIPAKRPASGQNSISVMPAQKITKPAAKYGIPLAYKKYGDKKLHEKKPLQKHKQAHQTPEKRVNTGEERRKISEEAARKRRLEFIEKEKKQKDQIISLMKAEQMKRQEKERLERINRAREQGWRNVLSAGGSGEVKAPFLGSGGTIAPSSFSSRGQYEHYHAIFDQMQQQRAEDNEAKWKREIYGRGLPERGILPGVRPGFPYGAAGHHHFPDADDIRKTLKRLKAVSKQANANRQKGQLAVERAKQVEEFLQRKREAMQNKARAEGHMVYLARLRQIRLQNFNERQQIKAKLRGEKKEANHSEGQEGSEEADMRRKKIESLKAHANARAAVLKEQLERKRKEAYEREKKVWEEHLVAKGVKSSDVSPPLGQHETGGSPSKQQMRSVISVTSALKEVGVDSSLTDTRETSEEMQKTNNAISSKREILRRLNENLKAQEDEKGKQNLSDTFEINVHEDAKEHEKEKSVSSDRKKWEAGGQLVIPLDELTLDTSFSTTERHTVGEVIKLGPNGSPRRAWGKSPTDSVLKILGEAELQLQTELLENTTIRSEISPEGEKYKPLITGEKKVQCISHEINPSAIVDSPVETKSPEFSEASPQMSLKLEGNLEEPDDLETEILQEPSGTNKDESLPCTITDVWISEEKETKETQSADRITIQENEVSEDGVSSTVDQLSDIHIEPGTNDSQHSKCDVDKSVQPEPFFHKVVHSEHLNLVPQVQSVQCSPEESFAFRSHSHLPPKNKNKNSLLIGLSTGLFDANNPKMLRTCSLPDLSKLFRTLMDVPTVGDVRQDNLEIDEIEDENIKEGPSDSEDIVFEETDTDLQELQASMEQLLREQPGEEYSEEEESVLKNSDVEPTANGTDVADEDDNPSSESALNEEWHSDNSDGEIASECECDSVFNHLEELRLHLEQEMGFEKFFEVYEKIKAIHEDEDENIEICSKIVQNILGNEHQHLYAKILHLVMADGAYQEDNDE
Kind of assay: KINOMEscan at 1 μM, NEK1. Conditions: 1000 nM, read-out: Percent Control. Type of assay: binding.
Description: as §2

The target in another assay is T31, LKB1 (Homo sapiens, UniProt Q15831).
T31 construct: purchased Eurofins DiscoverX KINOMEscan
T31 sequence (Q15831 whole entry): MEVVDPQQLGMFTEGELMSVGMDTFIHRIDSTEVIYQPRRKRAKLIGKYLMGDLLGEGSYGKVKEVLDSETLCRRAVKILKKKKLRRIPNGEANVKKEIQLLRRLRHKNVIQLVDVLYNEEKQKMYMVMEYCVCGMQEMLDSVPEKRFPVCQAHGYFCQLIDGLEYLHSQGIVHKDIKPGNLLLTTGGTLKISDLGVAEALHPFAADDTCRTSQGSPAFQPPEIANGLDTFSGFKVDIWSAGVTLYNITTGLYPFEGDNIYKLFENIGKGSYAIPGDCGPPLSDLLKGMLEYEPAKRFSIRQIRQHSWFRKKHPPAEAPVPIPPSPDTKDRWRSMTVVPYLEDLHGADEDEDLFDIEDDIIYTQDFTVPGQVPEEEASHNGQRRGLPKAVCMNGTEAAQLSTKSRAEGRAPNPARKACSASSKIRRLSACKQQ
Kind of assay: KINOMEscan binding assay at 1 μM, LKB1. Conditions: Compound Concentration 1000 nM; read-out: Percent Control.
Description: as §2

The target in the next assay is T32, DAPK1 (Homo sapiens, UniProt P53355).
T32 construct: purchased Eurofins DiscoverX KINOMEscan
The assay is described as follows: KINOMEscan at 1 μM, DAPK1. The format is binding. Conditions: 1000 nM, read-out: Percent Control.
Description: as §2

For a further assay, the target named is T33, PIK3CG (Homo sapiens, UniProt P48736).
T33 construct: purchased Eurofins DiscoverX KINOMEscan
Kind of assay: KINOMEscan at 1 μM, PIK3CG. Type of assay: binding. Conditions: 1000 nM, read-out: Percent Control.
Description: as §2

A further assay has as its target T34, PAK4 (Homo sapiens, UniProt O96013).
T34 construct: purchased Eurofins DiscoverX KINOMEscan
The assay is described as follows: KINOMEscan at 1 μM, PAK4. Conditions: 1000 nM, read-out: Percent Control. The format is binding.
Description: as §2

Another assay deals with T35, WEE1 (Homo sapiens, UniProt P30291).
T35 construct: purchased Eurofins DiscoverX KINOMEscan
The assay is described as follows: KINOMEscan at 1 μM, WEE1. The format is binding. Conditions: 1000 nM, read-out: Percent Control.
Description: as §2

Among the data in publication PMC9856672, “SGC-CAMKK2-1: A Chemical Probe for CAMKK2” (Cells, 2023) are remaining binding values, retold here.

Take `Cc1cccc(-c2cnc3occ(-c4ccc(C(=O)O)c(C5CCCC5)c4)c3c2)c1` [SGC-CAMKK2-1 (YL-36)]: the remaining binding at 1 µM at PRKCH was 100%; at MAPKAPK5 it was 100%; at CDKL2, 96%; in assay [1], 86%; on WNK1 it was 100%; at ITK it was 100%. Besides, the remaining binding at 1 µM stood at 100% at SRMS; 100% at PRP4; 96% at SRC; 70% on BLK; 100% at PIK3CA(E545A); 100% on ERK8. The remaining binding at 1 µM on RET(V804M) was 100%; on MST4, 100%; at BRAF, 100%; at ASK2, 96%; on IKK-beta, 100%.

For `O=C(O)c1ccc(-c2coc3ncc(-c4ccccc4)cc23)cc1Cl` [SGC-CAMKK2-1N (UNC-YL-83)], the remaining binding at 1 µM at CAMK2D amounted to 77%; at BMX, 77%; at SRPK3, 100%; on CHEK2 it was 100%; at MLCK, 100%; on SGK3, 100%. The remaining binding at 1 µM turned out to be 100% on HPK1; 65% at TSSK3; 90% on AURKC; 100% at CDC2L2; 54% on TTK; 100% in assay [2]. Further, the remaining binding at 1 µM was 71% at NEK1; 100% on LKB1; 100% on DAPK1; 66% at PIK3CG; 82% on PAK4; 84% at WEE1.
